Legend:
Details in all cases: 10 μM, 48 hours
[1] = tested on: MDA-MB-435
[2] = tested on: KM12; experiment: NCI screen antiproliferative activity, sulforhodamine B, Colon Cancer panel; format: cell-based, human
[3] = tested on: A498; experiment: NCI screen antiproliferative activity, sulforhodamine B, Renal Cancer panel; format: cell-based, human
Protocol: (§1) The antiproliferative activity of compounds were determined in the National Cancer Institute (NCI) screen (Drug. Dev. Res. 1995, 34, 91-109; J. Natl. Cancer Inst. 1990, 82, 1107-1112; Drug Dev. Res. 1995, 34, 91-109). For certain compounds, cells of approximately 60 different human cancer cell lines were incubated for 48 hours with five 10-fold dilutions of the tested compounds starting from 100 μM and then treated with sulforhodamine B dye. For other compounds, cells of approximately 60 different human cancer cell lines were incubated for 48 hours with a concentration of 10 μM test compound. The ratios of recorded optical densities relative to that of the control were plotted as a function of the common logarithm of the tested compound concentrations or growth percent (for single concentration tests). The interpolation between the points located above and below the 50% percentage growth provided 50% growth inhibition (GI50) values. Total growth inhibition (TGI) and 50% lethal concentrations (LC50) were also calculated using reported methods. A “-” means not tested and/or not-determined.

[4] = tested on: IGROV1
[5] = tested on: HCT-116
[6] = tested on: NCI-H322M
[7] = tested on: PC-3
[8] = tested on: SK-OV-3
[9] = tested on: COLO 205; experiment: NCI screen antiproliferative activity, sulforhodamine B, Colon Cancer panel; format: cell-based, human
[10] = tested on: MDA-MB-468; experiment: NCI screen antiproliferative activity, sulforhodamine B, Breast Cancer panel; format: cell-based, human
Protocol: as §1

[11] = tested on: MCF7
[12] = tested on: OVCAR-3
[13] = tested on: DU-145
[14] = tested on: SK-MEL-28
[15] = tested on: A549/ATCC
[16] = tested on: HL-60(TB); experiment: NCI screen antiproliferative activity, sulforhodamine B, Leukemia panel; format: cell-based, human
Protocol: as §1

[17] = tested on: CCRF-CEM; experiment: as above; format: cell-based, human
Protocol: as §1

[18] = tested on: NCI/ADR-RES; experiment: NCI screen antiproliferative activity, sulforhodamine B, Ovarian Cancer panel; format: cell-based, human
Protocol: as §1

[19] = tested on: RPMI-8226; experiment: NCI screen antiproliferative activity, sulforhodamine B, Leukemia panel; format: cell-based, human
[20] = tested on: HT29
[21] = tested on: SR; experiment: NCI screen antiproliferative activity, sulforhodamine B, Leukemia panel; format: cell-based, human
[22] = tested on: T-47D
[23] = tested on: SF-539
[24] = tested on: OVCAR-8
[25] = tested on: NCI-H460
[26] = tested on: ACHN
[27] = tested on: SF-268
[28] = tested on: LOX IMVI; experiment: NCI screen antiproliferative activity, sulforhodamine B, Melanoma panel; format: cell-based, human
[29] = tested on: NCI-H23
[30] = tested on: CAKI-1
[31] = tested on: HOP-62
[32] = tested on: SNB-75
[33] = tested on: NCI-H226
[34] = tested on: SW-620; experiment: NCI screen antiproliferative activity, sulforhodamine B, Colon Cancer panel; format: cell-based, human
[35] = tested on: M14
[36] = tested on: SN12C
[37] = tested on: OVCAR-5
[38] = tested on: NCI-H522
[39] = tested on: MOLT-4; experiment: NCI screen antiproliferative activity, sulforhodamine B, Leukemia panel; format: cell-based, human
[40] = tested on: BT-549
[41] = tested on: OVCAR-4
[42] = tested on: HS 578T; experiment: NCI screen antiproliferative activity, sulforhodamine B, Breast Cancer panel; format: cell-based, human
[43] = tested on: SK-MEL-5; experiment: NCI screen antiproliferative activity, sulforhodamine B, Melanoma panel; format: cell-based, human
[44] = tested on: RXF 393
[45] = tested on: HOP-92
[46] = tested on: UO-31
[47] = tested on: UACC-62
[48] = tested on: 786-0
[49] = tested on: HCT-15
[50] = tested on: HCC-2998
[51] = tested on: MALME-3M; experiment: NCI screen antiproliferative activity, sulforhodamine B, Melanoma panel; format: cell-based, human
[52] = tested on: SNB-19
[53] = tested on: K-562; experiment: NCI screen antiproliferative activity, sulforhodamine B, Leukemia panel; format: cell-based, human
[54] = tested on: MDA-MB-231/ATCC
[55] = tested on: TK-10

CCCCCN(CCCCC)CCC[C@@H](C)[C@H]1CC[C@H]2[C@@H]3[C@H](OCCCN)C[C@@H]4C[C@H](OCCCN)CC[C@]4(C)[C@H]3C[C@H](OCCCN)[C@]12C [CSA-90]
Growth Percent [1]: −13.61% | Growth Percent [2]: 22.46% | Growth Percent [3]: 92.77% | Growth Percent [4]: 29.55% | Growth Percent [5]: 22.71% | Growth Percent [6]: 24.61% | Growth Percent [7]: 80.53% | Growth Percent [8]: 93.22% | Growth Percent [9]: 52.08% | Growth Percent [10]: 71.06% | Growth Percent [11]: 74.77% | Growth Percent [12]: 107.13% | Growth Percent [13]: 76.50% | Growth Percent [14]: 27.91% | Growth Percent [15]: 55.21% | Growth Percent [16]: −16.84% | Growth Percent [17]: 15.29% | Growth Percent [18]: 76.04% | Growth Percent [19]: −17.73% | Growth Percent [20]: 24.49% | Growth Percent [21]: 19.21% | Growth Percent [22]: 68.11% | Growth Percent [23]: −21.94% | Growth Percent [24]: 55.32% | Growth Percent [25]: 45.20% | Growth Percent [26]: 54.72% | Growth Percent [27]: 87.47% | Growth Percent [28]: 3.00% | Growth Percent [29]: 49.16% | Growth Percent [30]: 75.81% | Growth Percent [31]: 48.28% | Growth Percent [32]: 70.61% | Growth Percent [33]: 75.25% | Growth Percent [34]: 45.90% | Growth Percent [35]: 42.81% | Growth Percent [36]: 54.27% | Growth Percent [37]: 66.15% | Growth Percent [38]: 28.85% | Growth Percent [39]: 41.11% | Growth Percent [40]: 54.97% | Growth Percent [41]: 85.16% | Growth Percent [42]: 66.91% | Growth Percent [43]: 25.14% | Growth Percent [44]: 87.11% | Growth Percent [45]: 50.03% | Growth Percent [46]: 65.22% | Growth Percent [47]: 13.55% | Growth Percent [48]: 61.11% | Growth Percent [49]: 72.31% | Growth Percent [50]: 59.63% | Growth Percent [51]: 62.21% | Growth Percent [52]: 61.03% | Growth Percent [53]: −19.42% | Growth Percent [54]: 36.97%

CCCCCCCCCCCCCCCCNCCCC(C)C1CCC2C3C(OCCCN)CC4CC(OCCCN)CCC4(C)C3CC(OCCCN)C12C.Cl.Cl.Cl.Cl (stereo not shown) [CSA-92]
Growth Percent [1]: −28.31% | Growth Percent [2]: −24.28% | Growth Percent [3]: −5.88% | Growth Percent [4]: −41.76% | Growth Percent [5]: −16.64% | Growth Percent [6]: −76.83% | Growth Percent [7]: −14.45% | Growth Percent [8]: −45.67% | Growth Percent [9]: −40.80% | Growth Percent [10]: −55.21% | Growth Percent [11]: −44.27% | Growth Percent [12]: −10.46% | Growth Percent [13]: −82.24% | Growth Percent [14]: −64.73% | Growth Percent [15]: −57.98% | Growth Percent [16]: 4.50% | Growth Percent [17]: −45.52% | Growth Percent [18]: −60.60% | Growth Percent [55]: −60.33% | Growth Percent [19]: −15.39% | Growth Percent [20]: −40.97% | Growth Percent [21]: 2.63% | Growth Percent [22]: −20.87% | Growth Percent [23]: −68.05% | Growth Percent [24]: −48.90% | Growth Percent [25]: −45.47% | Growth Percent [26]: −26.45% | Growth Percent [27]: −38.18% | Growth Percent [28]: −60.40% | Growth Percent [29]: −39.72% | Growth Percent [30]: −70.80% | Growth Percent [31]: −49.53% | Growth Percent [32]: −64.78% | Growth Percent [33]: −1.42% | Growth Percent [34]: −25.31% | Growth Percent [35]: −28.70% | Growth Percent [36]: −82.86% | Growth Percent [37]: −3.67% | Growth Percent [38]: −43.60% | Growth Percent [39]: −33.70% | Growth Percent [40]: −26.02% | Growth Percent [41]: −37.10% | Growth Percent [42]: −34.00% | Growth Percent [43]: 3.14% | Growth Percent [44]: −41.21% | Growth Percent [45]: −33.16% | Growth Percent [46]: −52.51% | Growth Percent [47]: −64.22% | Growth Percent [48]: −43.08% | Growth Percent [49]: 7.08% | Growth Percent [50]: −32.41% | Growth Percent [51]: −60.74% | Growth Percent [52]: −66.56% | Growth Percent [53]: −34.68% | Growth Percent [54]: −98.22%

Reference: patent US9943529B2, “Methods for reducing cellular proliferation and treating certain diseases” (BRIGHAM YOUNG UNIVERSITY, priority 2013, dated 2018)
